These results are taken from the METLIN SMRT retention time set (Domingo-Almenara et al. 2019).

The nature of this data set: gradient 5% acetonitrile 3 min, to 50% in 2 min, to 85% in 15 min, held 3 min, 100 µL/min. The settings on record: column: Zorbax Extend-C18 2.1 x 50 mm; eluents: water / acetonitrile, 0.1% formic acid. Summed up: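 Pure standards were analyzed in mixtures of ~100 molecules using HPLC coupled to a quadrupole time-of-flight mass spectrometer, in both positive and negative ionization mode. Separation used a Zorbax Extend-C18 column (2.1 × 50 mm, 1.8 μm) at 100 μL/min, with water and acetonitrile each containing 0.1% formic acid. Dead and dwell volumes were 40 μL and 900 μL, and data were collected over 3 months. Retention time was read from computationally picked adduct peaks, each inspected manually.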
`CCOc1cc(=O)n2c(c1C(=O)Nc1cc(OC)c(OC)c(OC)c1)CCCC2`: the RP-LC retention time was determined as 967 s.
Then `COc1ccc(NC(=O)c2cc3c(=O)n(CC(C)C)c4ccccc4n3n2)cc1OC`, with 910 s.
Take `C=CCN1C(=O)COc2ccc(-c3nc(NC(=O)C(C)C)sc3C)cc21`: the RP-LC retention time was found to be 922 s.
`O=C1COc2cc(Cl)ccc2N1Cc1nc(-c2ccc(F)c(Br)c2)no1`: the RP-LC retention time is 1210 s.
With `COc1ccc(CCc2nc3nccc(-c4ccc(OC)c(OC)c4)n3n2)cc1`, the RP-LC retention time worked out at 856 s.
On to `Cc1c2cnn(-c3ccccc3)c(=O)c2c(C)n1CCCC(=O)N1CCN(c2ccccn2)CC1`, for which the RP-LC retention time came to 611 s.
`O=C(c1ccco1)N1CCN(C(=O)c2nnn3c2COC(c2ccc(Cl)cc2)C3)CC1` (centres undefined) showed an RP-LC retention time of 838 s.
Molecule `O=C(NCCc1c[nH]c2ccccc12)c1noc2c1CSc1ccccc1-2` displayed an RP-LC retention time of 1130 s.
In the case of `Cc1ccc2ncn(C3CCN(S(=O)(=O)c4ccc(C(C)C)cc4)CC3)c(=O)c2c1`, the RP-LC retention time is 1050 s.
`CC(C)Cn1nc2n(c1=O)CCN(S(=O)(=O)c1ccccc1C(F)(F)F)CC2`: the RP-LC retention time was found to be 847 s.
The molecule `c1ccc(-c2nnc(-c3ccccc3OCc3cn4ccccc4n3)o2)cc1` registered an RP-LC retention time of 702 s.
`CCc1c(C(=O)O)nnn1-c1ccc(C)cc1F`: the RP-LC retention time worked out at 737 s.
The value for `Fc1cccc(Cn2cc(-c3noc(-c4cccc(F)c4)n3)nn2)c1` was 1040 s.
Molecule `Cn1c(CNC(=O)C2(Cc3ccccc3)CCCCC(=O)N2)nc2ccccc21` (centres undefined) had an RP-LC retention time of 630 s.
In the case of `CCNc1nc(C)cc(N2CCN(C(=O)Nc3cc(Cl)ccc3OC)CC2)n1`, the RP-LC retention time amounted to 709 s.
As to `O=C(Nc1ccc2c(c1)OCCO2)N1CCCn2nc(-c3cccc(Cl)c3)cc2C1`, the RP-LC retention time turned out to be 919 s.
With `O=C(C1=CN(c2ccccc2)c2cc(F)ccc2S1(=O)=O)N1CCOCC1`, the RP-LC retention time turned out to be 754 s.
The value for `CCN1C(=O)CN(C(=O)c2ccco2)CC12CCOCC2` was 610 s; that for `O=C(NC(c1ccccc1)c1nnc(N2CCOCC2)o1)c1ccc(Cl)cc1` (centres undefined) was 781 s.
`CCOC(=O)C(C)NC(=O)N1CCN(Cc2nc3cccnc3n2-c2cc(C)cc(C)c2)CC1` (centres undefined) returned an RP-LC retention time of 658 s.
In turn, `CCc1noc(C2(NC(=O)c3ccc(Cl)cc3)CCCCC2)n1` yielded an RP-LC retention time of 1010 s.
`CCCCOc1ccc(-c2nc(C3CC(=O)N(c4ccc(Cl)cc4)C3)no2)cc1` (centres undefined) displayed an RP-LC retention time of 1350 s.
Molecule `Cc1ccc(N(C)S(=O)(=O)c2cc(-c3cc(C(F)(F)F)on3)sc2C)cc1` registered an RP-LC retention time of 1320 s.
Molecule `Cc1ccc(NC(=O)C2CCN(S(=O)(=O)c3ccc4c(c3)sc(=O)n4C)CC2)cc1Cl` had an RP-LC retention time of 978 s.
On to `COc1ccc(S(=O)(=O)N2CCc3c(c(-c4nnc(-c5ccccc5)o4)nn3C)C2)cc1`, for which the RP-LC retention time came to 909 s.
Consider `O=C1c2cccc3cccc(c23)C(=O)N1CC(=O)N1CCCc2ccccc21`, for which the RP-LC retention time came out at 593 s.
The value for `CCCOc1ccc(C(=O)Nc2nnc(C3CC(=O)N(c4ccccc4)C3)o2)cc1` (centres undefined) was 800 s; that for `C=CCN1C(=O)COc2ccc(-c3nc(NC(=O)c4cc(OC)c(OC)c(OC)c4)sc3C)cc21` was 1050 s.
Regarding `COc1cccc(NC(=O)Cn2c(C)nc3c(sc4nc(-c5ccccc5)ccc43)c2=O)c1`, the RP-LC retention time was determined as 1090 s.
Then `O=C1CCCc2cc(S(=O)(=O)NCc3cccc(Br)c3)ccc2N1`, with 764 s; and `Cc1ccccc1Nc1c(-c2c(F)cccc2Cl)nc2ccc(Cl)cn12`, with 984 s.
In the case of `O=C(Cn1ccc2ccc(N3CCOCC3)nc21)NCc1ccccc1Br`, the RP-LC retention time turned out to be 886 s.
For `Cc1ccc(-c2ncccc2CNS(=O)(=O)c2cccc(C#N)c2)cc1`, the RP-LC retention time is 691 s.
Then `CCN(CC)c1nc2cc(C(=O)OC)ccc2c(=O)n1-c1cc(OC)cc(OC)c1`, with 1090 s; and `CN1CCCCCC(O)c2cc(C(=O)NCCC3=CCCCC3)ccc21` (centres undefined), with 703 s.
Regarding `O=S(=O)(c1ccc(Cl)cc1)N1CCc2nc(-c3ccc(Cl)cc3)ncc2C1`, the RP-LC retention time is 1270 s.
Molecule `O=S(=O)(Nc1cc(-c2ccoc2)no1)c1ccc2c(c1)CCC2` came in with an RP-LC retention time of 921 s.
The molecule `CC1CC(=O)c2cn3ncnc3nc2C1` (centres undefined) returned an RP-LC retention time of 607 s.
On to `CCCOc1ccc(Br)cc1-c1cc(-c2ccc(Cl)cc2)[nH]c1-c1ccncc1`, for which the RP-LC retention time amounted to 1040 s.
Take `CCc1nc2cc(-c3noc(-c4c(F)cccc4Cl)n3)ccc2o1`: the RP-LC retention time stood at 1190 s.
`Cn1nc2n(c1=O)CCC(NS(=O)(=O)c1cccnc1)CC2` (centres undefined): the RP-LC retention time came out at 579 s.
With `Cc1cc2c(cc1S(=O)(=O)N1CCCC1C(=O)NCc1ccc3c(c1)OCO3)OCC(=O)N2` (centres undefined), the RP-LC retention time worked out at 718 s.
`COC(=O)c1c(NC(=O)CCc2ccc(C)o2)sc(C)c1C`: the RP-LC retention time was 1110 s.
The value for `CC(C)NC(=O)C1Cc2cc(C(F)(F)F)ccc2N2CCN(c3ccccc3)CC12` (centres undefined) was 1100 s; that for `O=S(=O)(c1ccc2nncn2c1)N(Cc1cccc(F)c1)c1ccc(F)cc1` was 857 s.
The value for `Cc1cccc(CNC(=O)C2CCCN(c3ccc(=O)n(-c4ccc(C)c(Cl)c4)n3)C2)c1` (centres undefined) was 984 s; that for `COc1ccc(CN2CC3(CCN(S(=O)(=O)c4cn(C)cn4)CC3)C2=O)cc1` was 688 s; that for `Cc1ccc2nc(SCC(=O)N3CCCCC3)[nH]c2c1` was 590 s.
`N#CCSC1=NS(=O)(=O)c2cc(F)ccc2N1` gave an RP-LC retention time of 622 s.
`CCS(=O)(=O)Nc1ccc(C2(C(=O)NCc3cccs3)CCCCC2)cc1` had an RP-LC retention time of 913 s.
In turn, `CCCNc1cc(N2CCC(CCC(=O)N3CCN(c4ccccn4)CC3)CC2)ncn1` displayed an RP-LC retention time of 570 s.
For the molecule `CN(c1nc(-c2ccc(C(C)(C)C)cc2)nc2ccccc12)C1CCCCC1`, the RP-LC retention time was determined as 1130 s.
Regarding `Cc1c(Cl)cccc1NC(=O)CCCn1cccc1`, the RP-LC retention time is 868 s.
With `CC(C)C1c2nccn2CCCN1C(=O)c1n[nH]c(=O)c2ccccc12` (centres undefined), the RP-LC retention time was 569 s.
As to `Cn1nc(-c2nc(-c3cccc(F)c3)no2)c2c1CCN(C(=O)NC1CCCC1)C2`, the RP-LC retention time stood at 957 s.
Then `CN(CCCNC(=O)C1CCCN(c2ncc(-c3cccc(F)c3)cn2)C1)c1ccccc1` (centres undefined), with 838 s; and `O=C1CN(c2ccccc2NC(=O)c2cc(-c3ccccc3)on2)CCN1`, with 798 s.
Molecule `N=C(N)c1ccc2cc(OC(=O)c3ccc(N=C(N)N)cc3)ccc2c1` displayed an RP-LC retention time of 595 s.
In the case of `CCCNC(=O)C1CCN(c2ccc(SCC(=O)Nc3cc(Cl)ccc3OC)nn2)CC1`, the RP-LC retention time is 730 s.
The molecule `CCOCCCNC(=O)Cn1nc(C)c2nn(-c3ccc(Cl)cc3)c(-n3cccc3)c2c1=O` yielded an RP-LC retention time of 898 s.
With `Cc1nc(CC(=O)NCCc2c[nH]c3ccc(Cl)cc23)cs1`, the RP-LC retention time is 754 s.
In the case of `COc1ccc(-c2cc(N3CCCC(C(=O)Nc4nccs4)C3)ncn2)cc1` (centres undefined), the RP-LC retention time is 582 s.
`Clc1ccc(Cl)c(-c2ccc(CNCc3cccnc3)o2)c1` returned an RP-LC retention time of 664 s.
Molecule `O=C(NCCOc1ccc2nnc(-c3cccc(F)c3)n2n1)c1ccc(=O)[nH]n1` came in with an RP-LC retention time of 598 s.
Turning to `CCOc1ccccc1-c1nc(Cc2noc(-c3ccccc3)n2)c(C)o1`, the RP-LC retention time amounted to 1170 s.
`COc1ccc(C2CC(=O)N(c3ccc(C(C)C)cc3)C(=O)C2)cc1OC` registered an RP-LC retention time of 987 s.
As for `CCOC(=O)C1=C(CN2CCC(Cc3ccccc3)CC2)NC(=O)NC1c1ccco1` (centres undefined), the RP-LC retention time came to 708 s.
In the case of `Cc1ccccc1NS(=O)(=O)c1c[nH]c2ncccc12`, the RP-LC retention time is 728 s.
Consider `Nc1nc(SCC(=O)Nc2ccc(F)c(Cl)c2)n[nH]1`, for which the RP-LC retention time was 621 s.
Take `Cc1cccc(S(=O)(=O)Nc2ccc3c(c2)CCC(=O)N3)c1`: the RP-LC retention time worked out at 689 s.
In turn, `CCOc1ccccc1-c1noc(Cn2c(=O)n(Cc3ccc(F)cc3)c(=O)c3sccc32)n1` registered an RP-LC retention time of 1100 s.
Then `COc1cccc(Cn2c(C(=O)N3CCC(C(=O)NCC4CCCCC4)CC3)cc3ccsc32)c1`, with 1090 s; and `CC(C)NC(=O)CSc1nnc(CNC(=O)c2ccc(S(=O)(=O)N(C)C)cc2)o1`, with 625 s.
Molecule `O=c1cc(-c2ccccc2)nc2n1CCN2Cc1ccncc1` yielded an RP-LC retention time of 589 s.
Take `CC(C)N(CC#CCNS(=O)(=O)c1ccc(Cl)cc1)C(C)C`: the RP-LC retention time was 568 s.
Regarding `Cc1ccccc1CNC(=O)C1(C)CCCN(C(=O)Nc2cccc(C)c2C)C1` (centres undefined), the RP-LC retention time is 977 s.
With `CCCn1cc(C(=O)Nc2cccc(F)c2)c(S(=O)(=O)N2CCC(C)CC2)n1`, the RP-LC retention time was found to be 1220 s.
Consider `COc1ccc(OC)c(NC(=O)COc2cc(C(C)(C)C)nn2-c2nc(C)cc(C)n2)c1`, for which the RP-LC retention time came to 881 s.
The value for `Cc1cccc(-c2noc(C3CCCN3C(=O)Nc3ccc(F)cc3)n2)c1` (centres undefined) was 1010 s.
